The source of these data is patent publication US11098040B2, “Compounds and methods of use” (Ferro Therapeutics, Inc., priority 2018, dated 2021).

Type in all cases: cell-based
Assay [1] relates to SJSA-1. The assay is described as follows: Cell viability assay (CellTiter Glo), osteosarcoma SJSA-1. To be noted: Homo sapiens, 96 hours. The procedure:
(§1) Cell viability assay was performed to assess the potency of the compounds in human cancer cell lines KP4 (pancreatic ductal adenocarcinoma), MiaPaCa-2 (pancreatic carcinoma), AsPC-1 (pancreatic adenocarcinoma, ascites), 143B (osteosarcoma), and SJSA-1 (osteosarcoma). Selected compounds were also assayed in a human breast epithelial cell line MCF-10A, a nontumorigenic cell line as a control to assess differential activity. Cells at a density of 500-5,000 cells/well were seeded in 96-well plates and incubated at 37° C. overnight. A series of 9 different concentrations of compound stocks (500×) were created by 3-fold serial dilution in DMSO. These compounds were further diluted in culture media and then added to cells so that the final DMSO concentration was equal to 0.25% or less. After 96 hours of incubation, 50 μL of CellTiter Glo reagent (Promega) was added to each well and luminescence was measured after 10 minutes using EnVision (PerkinElmer). Compounds titrated from top concentration of up to 30 μM. The select compounds were tested initially from 30 μM as the top concentration in duplicates (range of 4.6 nM-30 μM). […] Luminescence from cells treated with DMSO alone was set as Max and % of inhibition was calculated as follows: Inhibition %=(Max-Sample value)/Max*100. Data was analyzed using XL-fit software (ID Business Solutions Ltd.). IC50, relative IC50, or % of top inhibition was calculated.
The results of the assay in sarcoma cell lines are given in Table 21a for HT-1080 luc2 (fibrosarcoma expressing a luciferase gene), Table 21b for 143B (osteosarcoma), and Table 21c for SJSA-1 (osteosarcoma).

Assay [2] deals with MCF-10A. The assay is described as follows: Cell viability assay (CellTiter Glo), non-tumorigenic breast epithelial cell line MCF-10A. The note with it: Homo sapiens, 96 hours. The protocol: as §1
Paclitaxel was used as the positive control for cytotoxicity.
A general note: In ATP-based viability assays light output follows the ATP content of the culture.

Assay [3] concerns MiaPaCa-2. As to the kind of experiment: Cell viability assay (CellTiter Glo), pancreatic carcinoma MiaPaCa-2. The note with it: Homo sapiens, MIA PaCa-2; pancreatic carcinoma, 96 hours, CellTiter Glo; read-out: IC50 MiaPaCa-2. The procedure:
as §1
(§2) The results of the assay in the pancreatic cell lines are given in Table 15a for PANC1, Table 15b for MiaPaCa-2, and Table 15c for AsPC-1.

Assay [4] relates to AsPC-1. As to the kind of experiment: Cell viability assay (CellTiter Glo), pancreatic adenocarcinoma AsPC-1. The note with it: Homo sapiens, ASPC1; pancreatic adenocarcinoma, ascites, 96 hours, CellTiter Glo; read-out: IC50 AsPC-1. The procedure:
as §1, §2

What is called pIC50 is −log10 of the IC50, conventionally taken in molar units.

pIC50: −log10 of the molar value.

Regarding `COC(=O)[C@H]1Cc2c([nH]c3ccccc23)[C@H](c2ccc(C(=O)NCCN3CCOCC3)cc2)N1C(=O)CCl` [Example 27], the negative logarithm of the IC50 (pIC50) in assay [1] is 5.85; in assay [2], 5.03; in assay [3], 6.33.
Regarding `COC(=O)[C@H]1Cc2c([nH]c3ccccc23)[C@H](c2ccc(C(=O)OCC34CC(F)(C3)C4)cc2)N1C(=O)CCl` [Compound 76], the pIC50 in assay [2] is 5.95; in assay [4] it was 7.46.
On the same counts, the results for `COC(=O)c1ccc([C@H]2c3[nH]c4ccccc4c3C[C@H](C)N2C(=O)CCl)cc1` [Example 77] are 6.05 and 7.13.
With `COC(=O)[C@H]1Cc2c([nH]c3ccccc23)[C@H](c2ccc(S(=O)(=O)N3CC(O)C3)cc2)N1C(=O)CCl` [Example 37], the values for the pIC50 in assay [1], in assay [2] and in assay [3] were 6.20, 5.26 and 6.55, respectively.
Take `COC(=O)[C@H]1Cc2c([nH]c3ccccc23)[C@H](c2ccc(C(=O)OCC3CCCC3)cc2)N1C(=O)CCl` [Example 86]: the pIC50 in assay [2] was 6.48; in assay [4], 7.68.
The matching figures for `COC(=O)[C@H]1Cc2c([nH]c3ccccc23)[C@H](c2ccc(S(=O)(=O)NCC3CC3)cc2)N1C(=O)CCl` [Example 82]: 5.43 and 7.21.
The matching figures for `C=CCOC(=O)c1ccc([C@H]2c3[nH]c4ccccc4c3C[C@H](C(=O)OC)N2C(=O)CCl)cc1` [Example 74]: 5.18 and 6.97.
On the same counts, the results for `COC(=O)[C@H]1Cc2c([nH]c3ccccc23)[C@H](c2ccc(C(=O)OCC3CC3)cc2)N1C(=O)CCl` [Example 75] are 5.89 and 7.55.
Take `COC(=O)[C@H]1Cc2c([nH]c3ccccc23)[C@H](c2ccc(C(=O)NCC3CC3)cc2)N1C(=O)CCl` [Example 81]: the figures for the pIC50 in assay [2] and in assay [4] were 5.58 and 7.14, respectively.
`COC(=O)[C@H]1Cc2c([nH]c3ccccc23)[C@H](c2ccc(C(=O)N3CCOCC3)cc2)N1C(=O)CCl` [Example 26]: the pIC50 was 6.47 in assay [1], 5.40 in assay [2] and 7.28 in assay [3].
On to `COC(=O)c1ccc([C@H]2c3[nH]c4ccc(Br)cc4c3C[C@H](C(=O)OC)N2C(=O)CCl)cc1` [Example 88], for which the pIC50 is 6.34 in assay [2] and 7.52 in assay [4].
On the same counts, the results for `COC(=O)[C@H]1Cc2c([nH]c3ccc(Br)cc23)[C@H](c2ccc(C(=O)OCC3CC3)cc2)N1C(=O)CCl` [Example 87] are 6.34 and 7.66.
The matching figures for `COC(=O)[C@H]1Cc2c([nH]c3ccccc23)[C@H](c2ccc(C(=O)OCC3CCC3)cc2)N1C(=O)CCl` [Example 85]: 6.30 and 7.54.
Take `COC(=O)[C@H]1Cc2c([nH]c3ccccc23)[C@H](c2ccc(S(=O)(=O)N3CCC(O)CC3)cc2)N1C(=O)CCl` [Example 35]: the pIC50 in assay [1] is 6.50; in assay [2], 5.38; in assay [3], 6.93.
For `[2H]C([2H])(Cl)C(=O)N1[C@@H](c2ccc(C(=O)OC)cc2)c2[nH]c3ccccc3c2C[C@@H]1C(=O)OC` [Example 90], the negative-log IC50 (pIC50) in assay [2] is 5.83; in assay [4] it was 6.88.
